Assay results published in patent US11278518B2, “Methods of treatment using 4-methylumbelliferone and derivatives thereof” (The Board of Trustees of the Leland Stanford Junior …, priority 2017, dated 2022).
Entries after “also recorded” stand apart in the source; their conditions may differ.

Legend:
DORmO mice = experiment: Onset of diabetes in DORmO mice; format: in vivo
Source text: In proof-of-principle studies, 12 candidate esters of 4-MU and 4 candidate esters of 4-MUG were generated and the conversion of these compounds into 4-MU in buffer containing bovin serum was examined. […] Compounds A and B were individually administered to 8 week old DORmO mice. Compound B, butyl-4-MUG, delayed diabetes onset by one month when compared to Compound A. In contrast, mice fed Compound A, ethyl-4-MUG, developed diabetes at 12 weeks of age, at the same time as untreated DORmO mice. […] Briefly, to determine that HA accumulates in the pancreatic islets and creates a permissive environment for autoimmune attacks during autoimmune diabetes disease progression, the DORmO double transgenic mouse model of autoimmune diabetes was used. DORmO mice predictably develop autoimmune diabetes because they are bred to have both a target antigen on their insulin producing beta-cells as well as an immune system that specifically recognizes that antigen. DORmO mice are the result of a cross between RIPmOVA mice (a strain that carries a gene specific for hen egg ovalbumin (OVA) that is only expressed on beta-cells, emulating the auto-antigen) and DO11.10 mice (a strain that carries a T-cell receptor transgene specific for OVA, emulating auto-reactive CD4+ T cells). DORmO mice spontaneously develop autoimmune insulitis starting at four weeks of age and all animals become diabetic (hyperglycemia >200 mg/dl) by 20 weeks of age (Wesley, J. D., et al., J. Immunol. 185, 4760-4768 (2010). Beginning at four weeks of age, mice were weighed weekly as well as bled via the tail vein for the determination of their blood glucose level using a Contour blood glucose meter and blood glucose monitoring strips (Bayer Healthcare). When two consecutive blood glucose readings of 250 mg/dL were recorded, animals were considered diabetic. When two consecutive blood glucose readings of 300 mg/dL were recorded, animals were euthanized. For the in vivo part the oral delivery in the drinking water was the same as for 4-MUG. […]

EAE = details: 4-MU treatment; cited from earlier work
obese, diabetic mice = details: 4-MU treatment; cited from earlier work
[1] = system: DORmO and NOD mouse models; details: 4-MU treatment; cited from earlier work
[2] = in vivo, cited from earlier work
ApoE-deficient mice = details: 4-MU treatment, high-fat diet; cited from earlier work
[3] = system: collagen-induced arthritis model; details: 4-MU treatment; cited from earlier work
[4] = system: Biliary Duct Ligation (BDL) model; details: 4-MU; cited from earlier work
acute lung injury = details: 4-MU treatment; cited from earlier work
[5] = Serum drug concentration in mice by HPLC-MS; format: in vivo; details: 4-MUG in drinking water at 5%, 0.325 mg/mouse/day
Protocol: The 4-MU (Alfa Aesar) was pressed into the mouse chow by TestDiet® and irradiated before shipment. This chow formulation delivered 250 mg/mouse/day, yielding a serum drug concentration of 640.3±17.2 nmol/L in mice, as measured by HPLC-MS. 4-MUG ([…]) was distributed in the drinking water of the mice at a 5% concentration which should deliver 0.325 mg/mouse/day, yielding a serum drug concentration of 357.1±72.6 ng/mL in mice, as measured by HPLC-MS. Mice were initiated on 4-MU and 4-MUG at five, eight or twelve weeks of age, unless otherwise noted, and were maintained on this diet until they were euthanized, unless otherwise noted. For analysis of Foxp3+ regulatory T cell numbers in naïve mice, mice were treated daily with 0.5 mg of 4-MU or 1.0 mg 4-MUG in 200 μl 0.08% carboxymethylcellulose in saline by intraperitoneal (i.p.) injection.

[6] = system: FoxP3+ regulatory T-cells; experiment: Induction of FoxP3+ regulatory T-cells in vivo; details: mice
Protocol: The 4-MU (Alfa Aesar) was pressed into the mouse chow by TestDiet® and irradiated before shipment. This chow formulation delivered 250 mg/mouse/day, yielding a serum drug concentration of 640.3±17.2 nmol/L in mice, as measured by HPLC-MS. 4-MUG (ChemImpex) was distributed in the drinking water of the mice at a 5% concentration which should deliver 0.325 mg/mouse/day, yielding a serum drug concentration of 357.1±72.6 ng/mL in mice, as measured by HPLC-MS. Mice were initiated on 4-MU and 4-MUG at five, eight or twelve weeks of age, unless otherwise noted, and were maintained on this diet until they were euthanized, unless otherwise noted. For analysis of Foxp3+ regulatory T cell numbers in naïve mice, mice were treated daily with 0.5 mg of 4-MU or 1.0 mg 4-MUG in 200 μl 0.08% carboxymethylcellulose in saline by intraperitoneal (i.p.) injection.

HA synthesis = experiment: Hyaluronan (HA) ELISA of B16F10 cell cultures, inhibition of HA synthesis; format: cell-based, murine; details: cells cultured 24-72 hours, HA in ELISA-like assay, normalized
Protocol: B16F10 is a murine melanoma cell line. […] The cells were cultured at 37° C. temperature and an atmosphere of 95% air and 5% carbon dioxide. Cells were cultured in DMEM plus 10% FBS. For the 4-MUG ester experiments, cells were seeded in 48-well plates, at a density of 10,000 cells per well and cultured for 24-72 hours. 4-MU, 4-MUG and the 4-MUG esters were diluted 1:1000 from their stock concentration and added to the cell medium in their final μM concentrations. For the analysis, the cells and the cell supernatant were collected at the end of each experiment and stored at −20° C. until further use. 48-well plates from previous experiments were thawed and 200 μL cell lysis buffer was added to each well. Cells were incubated for 15 minutes at room temperature. The whole lysate was transferred into a 96-well v-bottom plate and centrifuged at 3500 g for 20 minutes at 4° C. After spinning 25 μL from each well was transferred into a flat-bottom 96-well plate and stored until further use. Cell lysis buffer contains Tris-HCl, EDTA, SDS, MgCl2 and Super Nucleasis®. Protein measurement was performed by using the Pierce BCA Protein Assay Kit® (Thermo Scientific) according to the manufacturer instructions. The BCA Protein assay is based on bicinchoninic acid (BCA) for the colorimetric detection and quantitation of total protein. This method combines a biuret reaction (reduction of Cu2+ to Cu1+ by protein in an alkaline medium) with a highly and selective colorimetric detection of the cuprous cation (Cu1+) with the help of bicinchoninic acid. A purple-colored reaction product is formed by the chelation of two BCA molecules with one cuprous ion. This complex has a strong absorbance at 562 nm. The identification of HA in the samples is achieved by utilizing a highly specific HA binding protein (HABP) probe that interacts with HA. […] The HA concentration in the tissue is determined by using an ELISA-like assay. […] The plate was read at 405 nm and the concentrations were calculated according to the standards.

[7] = after 6 months of treatment; cited from earlier work

In the case of `Cc1cc(=O)oc2cc(O)ccc12` [Compound 4-MU, 4-methylumbelliferone], the protection from diabetes (DORmO mice; 0.65% 4-MU (approximately 10x less)) is given as “only partially protective”, the EAE disease (EAE) is given as “prevent and treat disease; also recorded: limit the progression” and the glycemia (obese, diabetic mice) is given as “restores normoglycemia”. For the same compound, the “progression of autoimmune diabetes” value [1] was “limit the progression”, the bioavailability ([2]; first-pass glucuronidation) was 2-3% and the “extraction by the liver” value [2] was ≤ 97%. For the same compound, the atherosclerosis (ApoE-deficient mice) was “worse atherosclerosis”, the disease scores [3] was “improved disease scores” and the fibrosis [4] was “reduce fibrosis”. The lung injury (acute lung injury) was “decreased or prevented lung injury”.
For `Cc1cc(=O)oc2cc(O[C@@H]3O[C@H](C(=O)O)[C@@H](O)[C@H](O)[C@H]3O)ccc12` [Compound 4-MUG, 4-methylumbelliferone glucuronide], the serum drug concentration [5] was 357.1 ± 72.6 ng/mL, the “fraction of Foxp3+ regulatory T-cells (induction)” value [6] was “also has this property in vivo; also recorded: does increase; also recorded: increases” and the “numbers of CD3+ T-cells” value [6] was “does not increase”. The “numbers of CD4+ T-cells” value [6] was “does not increase”, the “numbers of CD25+ T-cells” value [6] was “does not increase” and the “inhibition of HA synthesis” value (HA synthesis) was “inhibits HA synthesis by human cell lines as well as 4-MU; also recorded: inhibits HA synthesis as effectively as 4-MU”.
For `CCCCOC(=O)C1O[C@@H](Oc2ccc3c(C)cc(=O)oc3c2)C(O)[C@H](O)[C@@H]1O` (stereo partly drawn) [Compound B], the onset of diabetes (DORmO mice; at 1/100th the dose of 4-MU) was “delays the onset of diabetes” and the “inhibition of HA synthesis” value (HA synthesis) was “best inhibited HA synthesis in vitro”.
In the case of `CCOC(=O)C1O[C@@H](Oc2ccc3c(C)cc(=O)oc3c2)C(O)[C@H](O)[C@@H]1O` (stereo partly drawn) [Compound A, 4-methylumbelliferyl β-D-glucuronide ethyl ester], the “age at which mice developed diabetes” value (DORmO mice; 8 week old DORmO mice, 0.05% in drinking water) is reported as 12 weeks and the “inhibition of HA synthesis” value (HA synthesis) is reported as “best inhibited HA synthesis in vitro”.
For `C[C@H](CCC(=O)O)[C@H]1CC[C@H]2[C@@H]3[C@@H](O)C[C@@H]4C[C@H](O)CC[C@]4(C)[C@H]3CC[C@]12C` [UDCA, ursodeoxycholic acid], the “bile concentration of UDCA” value [7] is listed as “up to 70%”.
